From patent publication US11746111B2, “Siderophore conjugated pyrazolidinones, and analogues thereof” (YALE UNIVERSITY, priority 2018, dated 2023)
Values after ≈ are worked out from the molar mass of the structure shown. Like-named read-outs stand apart in the source and are kept apart here. Each block holds one molecule with its values, some of them ahead of it.

How the values were obtained:
Assay type in all cases: cell-based
E. coli = assay: MIC versus E. coli strains incl. Class B metallo beta lactamases (Table 2); settings: Escherichia coli
Text: (§1) Tables 2 and 3 show MIC values of compound 26 (YU253434) and 42 YU253911 versus E. coli and P. Aeruginosa strains containing Class B metallo beta lactamases VIM and NDM compared with Meropenem as a standard.

Pseudomonas aeruginosa = assay: MIC versus Pseudomonas aeruginosa strains incl. Class B metallo beta lactamases (Table 3)
Text: as §1

[1] = test system: K. pneumoniae clinical isolates; assay: Microdilution broth MIC, K. pneumoniae clinical isolates (Table 1); settings: Klebsiella pneumoniae
Method: (§2) Microdilution Broth Minimum Inhibitory Concentrations (MICs)
(§3) MICs were performed in triplicate in cation adjusted Mueller-Hinton (MH) broth 30 according to CLSI guidelines. Firstly, overnight cultures of E. coli and K. pneumoniae clinical isolates were inoculated into 5 ml MH broth to OD600=0.1 and grown to OD600=0.224 (approximately 1-2×10^8 CFU/ml). These cultures were diluted (3 μl+4997 μl MH) and 100 μl inoculated into each well of a 96-well plate containing 100 μl of serial dilutions of compound 26 (YU253434), ampicillin, ceftazidime, or imipenem. The plates were placed in a 37° C. incubator for 18-20 hours and wells checked for growth.

[2] = test system: E. coli clinical isolates; assay: Microdilution broth MIC, E. coli clinical isolates (Table 1); settings: Escherichia coli
Method: as §2, §3

- MIC (E. coli; ATCC25822, E. coli isolate ATCC 25822, CLSI costrol): > 64 µg/mL
- MIC (E. coli; E. coli isolate AA-118, NDM): > 64 µg/mL
- MIC (E. coli; E. coli isolate AA-119, NDM): > 64 µg/mL
- MIC (E. coli; E. coli isolate AA-128, NDM): > 64 µg/mL
- MIC (E. coli; E. coli isolate AK-114, KPC-3, TEM-18): 2 µg/mL (≈ 2.77 µM)
- MIC (E. coli; E. coli isolate AR-1, KPC-3): > 64 µg/mL
- MIC (E. coli; E. coli isolate AR-11, CTX-M-15, OxA-1): 4 µg/mL (≈ 5.55 µM)
- MIC (E. coli; E. coli isolate AR-137, NDM-6): > 64 µg/mL
- MIC (E. coli; E. coli isolate AR-145, NDM): > 64 µg/mL
- MIC (E. coli; E. coli isolate J4244, MN): > 64 µg/mL
- MIC (E. coli; E. coli isolate J4245, Michigan): > 64 µg/mL
- MIC (Pseudomonas aeruginosa; ATCC27853, P. aeruginosa isolate ATCC 27853, CLSI control): 0.5 µg/mL (≈ 0.693 µM)
- MIC (Pseudomonas aeruginosa; P. aeruginosa isolate AR-229, OXA-50): 0.5 µg/mL (≈ 0.693 µM)
- MIC (Pseudomonas aeruginosa; P. aeruginosa isolate AR-230, VIM-2): 1 µg/mL (≈ 1.39 µM)
- MIC (Pseudomonas aeruginosa; P. aeruginosa isolate AR-231, KPC-5): 1 µg/mL (≈ 1.39 µM)
- MIC (Pseudomonas aeruginosa; P. aeruginosa isolate AR-232, OXA-50): 0.5 µg/mL (≈ 0.693 µM)
- MIC (Pseudomonas aeruginosa; P. aeruginosa isolate AR-245, VIM): 0.5 µg/mL (≈ 0.693 µM)
- MIC (Pseudomonas aeruginosa; P. aeruginosa isolate AR-249, VIM): 1 µg/mL (≈ 1.39 µM)
- MIC (Pseudomonas aeruginosa; P. aeruginosa isolate AR-252): 1 µg/mL (≈ 1.39 µM)
- MIC (Pseudomonas aeruginosa; P. aeruginosa isolate AR-254, VIM): 2 µg/mL (≈ 2.77 µM)
- MIC (Pseudomonas aeruginosa; P. aeruginosa isolate AR-270, OXA-50): 0.25 µg/mL (≈ 0.347 µM)
- MIC (Pseudomonas aeruginosa; P. aeruginosa isolate J4242, UNC-D): 0.5 µg/mL (≈ 0.693 µM)
SMILES: CC(C)(O/N=C(\C(=O)N[C@H]1CN2CC(C(=O)NCCN3C(=O)c4cc(O)c(O)cc4C3=O)=C(C(=O)O)N2C1=O)c1nc(N)sc1Cl)C(=O)O [Compound 42, (S,Z)-6-(2-(2-amino-5-chlorothiazol-4-yl)-2-(((2-carboxypropan-2-yl)oxy)imino)acetamido)-2-((2-(5,6-dihydroxy-1,3-dioxoisoindolin-2-yl)ethyl)carbamoyl)-5-oxo-6,7-dihydro-1H,5H-pyrazolo[1,2-a]pyrazole-3-carboxylic acid]

SMILES: CC(C)(O/N=C(\C(=O)N[C@@H]1C(=O)N2C(C(=O)[O-])=C(C[n+]3ccccc3)CS[C@H]12)c1csc(N)n1)C(=O)O [Ceftazidime]
- MIC ([1]; K. pneumoniae 7000063, β-lactamase SHV-18, read-out: MIC): 16 µg/mL (≈ 29.3 µM)
- MIC ([1]; K. pneumoniae KB390 Quale, TEM-30, TEM-1, KPC-2, SHV-12): 512 µg/mL (≈ 937 µM)
- MIC ([1]; K. pneumoniae LC40, CTX-M-1 grp(15), TEM (164S), read-out: MIC): < 1 µg/mL
- MIC ([1]; K. pneumoniae LC56, CTX-M-1 grp(15), read-out: MIC): 16 µg/mL (≈ 29.3 µM)
- MIC ([1]; K. pneumoniae LC102, SHV-1 (WT + 238S), read-out: MIC): 4 µg/mL
- MIC ([1]; K. pneumoniae LC121, SHV-1 (WT + 238S + 240K), read-out: MIC): 16 µg/mL
- MIC ([1]; K. pneumoniae Rush23, CTX-M-9 group, read-out: MIC): 2 µg/mL (≈ 3.66 µM)
- MIC ([1]; K. pneumoniae VA-184, KPC-2, SHV-11, SHV-12): 256 µg/mL (≈ 468 µM)
- MIC ([1]; K. pneumoniae VA-267, KPC-3, TEM-1, SHV-11, SHV-12): 512 µg/mL (≈ 937 µM)
- MIC ([1]; K. pneumoniae VA-357, KPC-2, SHV-11): 128 µg/mL (≈ 234 µM)
- MIC ([1]; K. pneumoniae VA-368, KPC-2, TEM-1, SHV-5, SHV-68, read-out: MIC): 16 µg/mL (≈ 29.3 µM)
- MIC ([1]; K. pneumoniae VA-384, KPC-2, TEM-1, SHV-11, SHV-12, SHV-14): 256 µg/mL (≈ 468 µM)
- MIC ([1]; K. pneumoniae VA-391, KPC-3, TEM-1, SHV-11, SHV-12, SHV-77): 256 µg/mL (≈ 468 µM)
- MIC ([1]; K. pneumoniae VA-398, KPC-3, TEM-1, SHV-11, SHV-12, SHV-27, read-out: MIC): 32 µg/mL (≈ 58.5 µM)
- MIC ([1]; K. pneumoniae VA-400, KPC-2, TEM-1, SHV-11, SHV-12): 256 µg/mL (≈ 468 µM)
- MIC ([1]; K. pneumoniae VA-406, KPC-2, TEM-1, SHV-11, SHV-12): 256 µg/mL (≈ 468 µM)
- MIC ([1]; K. pneumoniae VA-410, KPC-3, TEM-1, SHV-11): 128 µg/mL (≈ 234 µM)
- MIC ([2]; BAA202, E. coli BAA-202, SHV-1, read-out: MIC): 16 µg/mL (≈ 29.3 µM)
- MIC ([2]; E. coli 35218, TEM-1, read-out: MIC): < 1 µg/mL
- MIC ([2]; E. coli LC4, TEM, SHV-12): 256 µg/mL (≈ 468 µM)
- MIC ([2]; E. coli LC12, CTX-M-1 grp(15), read-out: MIC): > 1020 µg/mL
- MIC ([2]; E. coli LC15, CTX-M-9 group, CTX-M-1 grp(15), read-out: MIC): < 1 µg/mL
- MIC ([2]; E. coli LC33, CTX-M-9 group, read-out: MIC): 4 µg/mL (≈ 7.32 µM)
- MIC ([2]; E. coli LC38, CTX-M-1 grp(15), PB AmpC (ACT/MIR), read-out: MIC): < 1 µg/mL
- MIC ([2]; E. coli LC41, TEM (238S), PB AmpC (ACT/MIR), CTX-M-1 grp(15), read-out: MIC): < 1 µg/mL
- MIC ([2]; E. coli LC77, TEM, KPC, read-out: MIC): 16 µg/mL (≈ 29.3 µM)
- MIC ([2]; E. coli LC81, SHV (238S + 240K), read-out: MIC): 128 µg/mL
- MIC ([2]; E. coli LC91, CTX-M-1 grp(15), CMY (group II), read-out: MIC): 16 µg/mL (≈ 29.3 µM)
- MIC ([2]; E. coli LC98, CMY (group II), read-out: MIC): 256 µg/mL (≈ 468 µM)
- MIC ([2]; E. coli LC109, CTX-M-9 group, CMY (group II), read-out: MIC): 32 µg/mL (≈ 58.5 µM)
- MIC ([2]; E. coli LC111, TEM (164S), read-out: MIC): 2 µg/mL (≈ 3.66 µM)
- MIC ([2]; E. coli LC136, SHV (WT + 238S), read-out: MIC): < 1 µg/mL
- MIC ([2]; E. coli Rush24, CMY (group II), read-out: MIC): 256 µg/mL (≈ 468 µM)
